Source: ChEMBL document CHEMBL1201862, “PubChem BioAssay data set” (2004)
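48-hour exposure; five concentrations; linearly interpolated endpoints. GI50 is the concentration that inhibits growth by half.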 The source made the active and inactive calls. Cut-off read from the data, not from the text of the source: active = GI50 up to about 1.1 µM and inactive = higher.

What was measured:
Assay in all cases: NCI-60 cell line screen, 48 h
CCRF-CEM = test system: CCRF-CEM
HCT-116 = test system: HCT-116
M14 = test system: M14
OVCAR-8 = test system: OVCAR-8
SNB-78 = test system: SNB-78
OVCAR-4 = test system: OVCAR-4
UACC-257 = test system: UACC-257
SK-MEL-5 = test system: SK-MEL-5
DLD-1 = test system: DLD-1
NCI-H522 = test system: NCI-H522
KM12 = test system: KM12
LOX IMVI = test system: LOX IMVI
NCI-H23 = test system: NCI-H23
SN12C = test system: SN12C
RXF 393 = test system: RXF 393
CAKI-1 = test system: CAKI-1
NCI-H226 = test system: NCI-H226
SK-OV-3 = test system: SK-OV-3
786-0 = test system: 786-0
SW-620 = test system: SW-620
DMS-114 = test system: DMS-114
RPMI-8226 = test system: RPMI-8226
HCT-15 = test system: HCT-15
IGROV-1 = test system: IGROV-1
HOP-62 = test system: HOP-62
UACC-62 = test system: UACC-62
HOP-18 = test system: HOP-18
SK-MEL-28 = test system: SK-MEL-28
KM-20L2 = test system: KM-20L2
LXFL 529 = test system: LXFL 529
NCI-H460 = test system: NCI-H460
SR = test system: SR
K562 = test system: K562
SF-539 = test system: SF-539
SF-295 = test system: SF-295
SF-268 = test system: SF-268
MOLT-4 = test system: MOLT-4
SK-MEL-2 = test system: SK-MEL-2
A498 = test system: A498
HOP-92 = test system: HOP-92
HL-60 = test system: HL-60
TK-10 = test system: TK-10
M19-MEL = test system: M19-MEL
UO-31 = test system: UO-31
HT-29 = test system: HT-29
DMS-273 = test system: DMS-273
OVCAR-3 = test system: OVCAR-3
Malme-3M = test system: Malme-3M
A549 = test system: A549
OVCAR-5 = test system: OVCAR-5
COLO 205 = test system: COLO 205
U-251 = test system: U-251
ACHN = test system: ACHN
SNB-75 = test system: SNB-75

Which GI50 (CCRF-CEM) does the source give for `CN1C(=O)CSC1=S` [3-METHYL-RHODANINE] here?
The GI50 was > 100 µM (inactive).

And the GI50 (HCT-116)?
The GI50 was > 100 µM (inactive).

What about the GI50 (M14) of the same molecule?
Its GI50 is > 100 µM (inactive).

And the GI50 (OVCAR-8)?
Its GI50 is > 100 µM (inactive).

What about the GI50 (SNB-78) of the same molecule?
Its GI50 is > 100 µM (inactive).

And the GI50 (OVCAR-4)?
Its GI50 is > 100 µM (inactive).

And the GI50 (UACC-257)?
The GI50 was > 100 µM (inactive).

And the GI50 (SK-MEL-5)?
The GI50 was > 100 µM (inactive).

What about the GI50 (DLD-1) of the same molecule?
The GI50 was > 100 µM (inactive).

And the GI50 (NCI-H522)?
The GI50 was > 100 µM (inactive).

And the GI50 (KM12)?
The GI50 was > 100 µM (inactive).

What about the GI50 (LOX IMVI) of the same molecule?
The GI50 was > 100 µM (inactive).

What about the GI50 (NCI-H23) of the same molecule?
Its GI50 is > 100 µM (inactive).

What about the GI50 (SN12C) of the same molecule?
Its GI50 is > 100 µM (inactive).

What about the GI50 (RXF 393) of the same molecule?
The GI50 was > 100 µM (inactive).

And the GI50 (CAKI-1)?
Its GI50 is > 100 µM (inactive).

What about the GI50 (NCI-H226) of the same molecule?
The GI50 was > 100 µM (inactive).

What about the GI50 (SK-OV-3) of the same molecule?
The GI50 was > 100 µM (inactive).

What about the GI50 (786-0) of the same molecule?
Its GI50 is > 100 µM (inactive).

And the GI50 (SW-620)?
Its GI50 is > 100 µM (inactive).

What about the GI50 (DMS-114) of the same molecule?
Its GI50 is > 100 µM (inactive).

What about the GI50 (RPMI-8226) of the same molecule?
Its GI50 is > 100 µM (inactive).

And the GI50 (HCT-15)?
Its GI50 is > 100 µM.

And the GI50 (IGROV-1)?
Its GI50 is > 100 µM (inactive).

What about the GI50 (HOP-62) of the same molecule?
Its GI50 is > 100 µM (inactive).

What about the GI50 (UACC-62) of the same molecule?
The GI50 was > 100 µM (inactive).

And the GI50 (HOP-18)?
The GI50 was > 100 µM (inactive).

What about the GI50 (SK-MEL-28) of the same molecule?
Its GI50 is > 100 µM (inactive).

And the GI50 (KM-20L2)?
The GI50 was > 100 µM (inactive).

What about the GI50 (LXFL 529) of the same molecule?
Its GI50 is > 100 µM (inactive).

And the GI50 (NCI-H460)?
Its GI50 is > 100 µM (inactive).

What about the GI50 (SR) of the same molecule?
The GI50 was > 100 µM (inactive).

What about the GI50 (K562) of the same molecule?
Its GI50 is > 100 µM (inactive).

And the GI50 (SF-539)?
Its GI50 is > 100 µM (inactive).

And the GI50 (SF-295)?
Its GI50 is > 100 µM (inactive).

And the GI50 (SF-268)?
The GI50 was > 100 µM (inactive).

And the GI50 (MOLT-4)?
Its GI50 is > 100 µM (inactive).

What about the GI50 (SK-MEL-2) of the same molecule?
Its GI50 is > 100 µM (inactive).

And the GI50 (A498)?
Its GI50 is > 100 µM (inactive).

And the GI50 (HOP-92)?
The GI50 was > 100 µM (inactive).

And the GI50 (HL-60)?
Its GI50 is > 100 µM (inactive).

And the GI50 (TK-10)?
The GI50 was > 100 µM (inactive).

What about the GI50 (M19-MEL) of the same molecule?
The GI50 was > 100 µM (inactive).

What about the GI50 (UO-31) of the same molecule?
Its GI50 is > 100 µM (inactive).

What about the GI50 (HT-29) of the same molecule?
Its GI50 is > 100 µM (inactive).

What about the GI50 (DMS-273) of the same molecule?
The GI50 was > 100 µM (inactive).

What about the GI50 (OVCAR-3) of the same molecule?
Its GI50 is > 100 µM (inactive).

And the GI50 (Malme-3M)?
Its GI50 is > 100 µM (inactive).

What about the GI50 (A549) of the same molecule?
Its GI50 is > 100 µM (inactive).

And the GI50 (OVCAR-5)?
Its GI50 is > 100 µM (inactive).

And the GI50 (COLO 205)?
The GI50 was > 100 µM (inactive).

And the GI50 (U-251)?
The GI50 was > 100 µM (inactive).

And the GI50 (ACHN)?
Its GI50 is > 100 µM (inactive).

And the GI50 (SNB-75)?
Its GI50 is > 100 µM (inactive).
